Values quoted from earlier work in article PMC6888386, “Identification of Novel 1,3,5-Triphenylbenzene Derivative Compounds as Inhibitors of Hen Lysozyme Amyloid Fibril Formation” (International Journal of Molecular Sciences, 2019).

Tested on: HEWL
Set-up: method as in PMID 27597412
Conditions: HEWL amyloid fibril formation; read-out: IC50 value of a representative bis(indolyl)phenylmethane; cited from earlier work

Substance: bis(indolyl)phenylmethane
- IC50: 12.3 ± 1 µM
